Assay: xn = mol fraction of the nth substance listed
Conditions: Fluid (supercritical or subcritical phases), Buoyancy - hydrostatic balance with magnetic suspension - one sinker

CCCCCCCCCCC [undecane] + O=C=O
Conditions | mass density [kg/m3]
333.19 K, 16015 kPa, x2 = 0.8874 | 741.91
333.21 K, 19000 kPa, x2 = 0.4641 | 752.46
333.23 K, 16000 kPa, x2 = 0.6797 | 762.53
343.19 K, 12000 kPa, x2 = 0.2483 | 720.79
343.2 K, 14004 kPa, x2 = 0.2483 | 722.81
343.2 K, 17005 kPa, x2 = 0.2483 | 725.76
343.21 K, 11985 kPa, x2 = 0.6797 | 729.1
343.24 K, 10010 kPa, x2 = 0.2483 | 718.69
343.25 K, 13002 kPa, x2 = 0.6797 | 731.82
343.25 K, 16001 kPa, x2 = 0.4641 | 738.42
343.26 K, 14997 kPa, x2 = 0.2483 | 723.76
343.26 K, 17011 kPa, x2 = 0.4641 | 739.9
343.27 K, 13999 kPa, x2 = 0.6797 | 736.08
343.27 K, 14997 kPa, x2 = 0.4641 | 736.9
343.27 K, 17005 kPa, x2 = 0.6797 | 747.33
343.28 K, 14027 kPa, x2 = 0.8874 | 673.56
343.28 K, 14995 kPa, x2 = 0.6797 | 739.94
343.28 K, 15997 kPa, x2 = 0.6797 | 743.79
343.28 K, 18018 kPa, x2 = 0.6797 | 750.83
343.3 K, 11002 kPa, x2 = 0.2483 | 719.69
343.3 K, 11003 kPa, x2 = 0.4641 | 730.57
343.3 K, 12002 kPa, x2 = 0.4641 | 732.18
343.3 K, 16007 kPa, x2 = 0.2483 | 724.72
343.3 K, 18033 kPa, x2 = 0.8874 | 723.56
343.31 K, 8003 kPa, x2 = 0.4641 | 725.39
343.31 K, 13003 kPa, x2 = 0.4641 | 733.77
343.32 K, 7999 kPa, x2 = 0.2483 | 716.46
343.32 K, 17016 kPa, x2 = 0.8874 | 713.66
343.32 K, 19002 kPa, x2 = 0.4641 | 742.71
343.34 K, 9998 kPa, x2 = 0.4641 | 728.83
343.34 K, 16020 kPa, x2 = 0.8874 | 702.38
343.34 K, 19012 kPa, x2 = 0.2483 | 727.57
343.35 K, 15016 kPa, x2 = 0.8874 | 689.29
343.35 K, 17999 kPa, x2 = 0.4641 | 741.25
343.37 K, 19004 kPa, x2 = 0.8874 | 731.75
343.37 K, 19021 kPa, x2 = 0.6797 | 753.8
343.39 K, 13010 kPa, x2 = 0.2483 | 721.68
343.4 K, 18008 kPa, x2 = 0.2483 | 726.58
343.41 K, 14002 kPa, x2 = 0.4641 | 735.22
353.08 K, 11003 kPa, x2 = 0.2483 | 711.86
353.09 K, 11995 kPa, x2 = 0.4641 | 721.32
353.12 K, 10003 kPa, x2 = 0.2483 | 710.71
353.13 K, 13017 kPa, x2 = 0.2483 | 714.01
353.13 K, 17994 kPa, x2 = 0.4641 | 731.12
353.14 K, 16002 kPa, x2 = 0.2483 | 717.14
353.19 K, 14997 kPa, x2 = 0.4641 | 726.33
353.23 K, 14005 kPa, x2 = 0.4641 | 724.68
353.31 K, 8017 kPa, x2 = 0.4641 | 712.03
353.31 K, 16999 kPa, x2 = 0.2483 | 718.15
353.33 K, 9996 kPa, x2 = 0.4641 | 717.59
353.33 K, 18011 kPa, x2 = 0.2483 | 719.15
353.34 K, 14014 kPa, x2 = 0.2483 | 715.02
353.34 K, 16078 kPa, x2 = 0.6797 | 710.53
353.35 K, 14995 kPa, x2 = 0.2483 | 716.05
353.38 K, 19001 kPa, x2 = 0.4641 | 732.5
353.39 K, 13004 kPa, x2 = 0.4641 | 722.88
353.4 K, 7998 kPa, x2 = 0.2483 | 708.29
353.4 K, 16003 kPa, x2 = 0.4641 | 727.85
353.4 K, 19017 kPa, x2 = 0.2483 | 720.08
353.41 K, 11004 kPa, x2 = 0.4641 | 719.34
353.42 K, 17964 kPa, x2 = 0.6797 | 722.19
353.43 K, 12003 kPa, x2 = 0.2483 | 712.78
353.43 K, 15953 kPa, x2 = 0.8874 | 651.24
353.43 K, 18953 kPa, x2 = 0.8874 | 692.79
353.43 K, 19052 kPa, x2 = 0.8874 | 691.56
353.44 K, 15006 kPa, x2 = 0.6797 | 702.5
353.44 K, 16998 kPa, x2 = 0.4641 | 729.38
353.44 K, 17006 kPa, x2 = 0.6797 | 716.04
353.44 K, 19016 kPa, x2 = 0.6797 | 727.96
353.45 K, 17976 kPa, x2 = 0.8874 | 681.1
353.46 K, 16003 kPa, x2 = 0.8874 | 649.3
353.46 K, 17018 kPa, x2 = 0.8874 | 665.72
353.52 K, 17018 kPa, x2 = 0.8874 | 668.1
353.52 K, 18000 kPa, x2 = 0.8874 | 678.79
